Values joined by “and” are separate entries in the source; they are usually repeats but may differ in a detail not shown here. Equal entries are not always repeated. Where two headings read alike, the source gives them in different places. Peptide text beside a SMILES is read from it.
What was measured:
[1] = system: human PBMC (MCP-1); test: synergy with poly(I:C) to increase MCP-1 production; type: cell-based; conditions: 10 μg/ml peptide with 20 μg/ml poly(I:C)
Protocol: FIG. 21. Ability of 10 μg/ml of peptides in combination with 20 or 5 μg/ml of the known adjuvant poly inosine:cytosine [poly(I:C)] to synergize to increase MCP-1 production, a known adjuvant property [see Kindrachuk, J., H. Jenssen, M. Elliott, R. Townsend, A. Nijnik, S. F. Lee, V. Gerdts, L. A. Babiuk, S. A. Halperin and R. E. W. Hancock. 2009. A novel vaccine adjuvant comprised of a synthetic innate defence regulator peptide and CpG oligonucleotide links innate and adaptive immunity. Vaccine 27:4662-4671].
It is well accepted that vaccine immunization is best achieved by co-adminstration of an adjuvant. The precise mechanism by which these adjuvants work has eluded immunologists but appears to work in part by upregulating elements of innate immunity that smooth the transition to adaptive (antigen-specific) immunity (Bendelac A and R. Medzhitov. 2002. Adjuvants of immunity: Harnessing innate immunity to promote adaptive immunity J. Exp. Med. 195:F19-F23). Within this concept there are several possible avenues by which adjuvants might work including the attraction of immune cells into the site at which a particular antigen is injected, through e.g. upregulation of chemokines, the appropriate activation of cells when they reach that site, which can be caused by local cell or tissue damage releasing endogenous adjuvants or through specific cell activation by the adjuvants, and the compartmentalization of immune responses to the site of immunization (the so-called “depot” effect). […] 2010. Immunomodulators as adjuvants for vaccines and antimicrobial therapy. Ann. NY Acad. Sci. 1213:46-61].

[2] = system: human PBMC (TNFα); test: LPS-induced TNFα production by ELISA; type: cell-based; conditions: P. aeruginosa LPS, 24 hr
Protocol: FIG. 20. Ability of peptides to knockdown pro-inflammatory cytokine TNFα production by human PBMCs in response to bacterial LPS treatment as determined by ELISA after 24 hours.
LPS from P. aeruginosa strain H103 was highly purified free of proteins and lipids using the Darveau-Hancock method. Briefly, P. aeruginosa was grown overnight in LB broth at 37° C. Cells were collected and washed and the isolated LPS pellets were extracted with a 2:1 chloroform:methanol solution to remove contaminating lipids. Purified LPS samples were quantitated using an assay for the specific sugar 2-keto-3-deoxyoctosonic acid (KDO assay) and then resuspended in endotoxin-free water (Sigma-Aldrich).
Human PBMC were obtained as described above and treated with P. aeruginosa LPS (10 or 100 ng/ml) with or without peptides for 24 hr after which supernatants were collected and TNFα assessed by ELISA.

[3] = system: human peripheral blood mononuclear cells (MCP-1); test: MCP-1 chemokine production by ELISA; type: cell-based; conditions: 24 hours of stimulation; lowest peptide concentration 20 μg/ml
Protocol: FIG. 19. High production of anti-infective chemokine MCP-1 by human peripheral blood mononuclear cells treated with peptides, as determined by ELISA after 24 hours of stimulation.
Venous blood (20 ml) from healthy volunteers was collected in Vacutainer® collection tubes containing sodium heparin as an anticoagulant (Becton Dickinson, Mississauga, ON) in accordance with UBC ethical approval and guidelines. Blood was diluted 1:1 with complete RPMI 1640 medium and separated by centrifugation over a Ficoll-Paque® Plus (Amersham Biosciences, Piscataway, N.J., USA) density gradient. White blood cells were isolated from the buffy coat, washed twice in RPMI 1640 complete medium, and the number of peripheral blood mononuclear cells (PBMC) was determined by Trypan blue exclusion. PBMC (5×10^5) were seeded into 12-well tissue culture dishes (Falcon; Becton Dickinson) at 0.75 to 1×10^6 cells/ml at 37° C. in 5% CO2. The above conditions were chosen to mimic conditions for circulating blood monocytes entering tissues at the site of infection via extravasation.
Following incubation of the cells under various treatment regimens, the tissue culture supernatants were centrifuged at 1000×g for 5 min, then at 10,000×g for 2 min to obtain cell-free samples. Supernatants were aliquoted and then stored at −20° C. prior to assay for various chemokines by capture ELISA (eBioscience and BioSource International Inc., CA, USA respectively)

[4] = system: Salmonella biofilm; test: checkerboard titration biofilm synergy (FIC); type: cell-based; conditions: for Fold decrease in antibiotic MIC in the presence of peptide: peptide DJK5
Protocol: (§1) Peptides and various conventional antibiotics were analyzed by checkerboard titration into microtiter trays using CLSI methods (Wiegand, I., K. Hilpert, and R. E. W. Hancock. 2008. Nature Protocols 3:163-175), bacteria added and, after overnight incubation at 37° C., the residual biofilm assessed by the crystal violet method mentioned in the body of the grant, with an A595 of 0.2 considered as 100% biofilm inhibition. The effects of the peptide in reducing the minimal biofilm inhibitory concentration (MBIC) of the antibiotic and vice versa were assessed using the Fractional Inhibitory Concentration (FIC) method whereby ΣFTC=FICA+FICB=(CA/MICA)+(CB/MICB), where MBICA and MBICB are the MBICs of peptide A and antibiotic B alone, respectively, and CA and CB (expressed in μg/ml) are the MICs of the drugs in combination. This conventional clinical microbiology assay is interpreted as follows

[5] = system: K. pneumoniae biofilm; test: checkerboard titration biofilm synergy (FIC); type: cell-based; conditions: for Fold decrease in antibiotic MIC in the presence of peptide: peptide DJK5
Protocol: as §1

[6] = system: A. baumannii biofilm; test: checkerboard titration biofilm synergy (FIC); type: cell-based; conditions: for Fold decrease in antibiotic MIC in the presence of peptide: peptide DJK5
Protocol: as §1

[7] = system: P. aeruginosa biofilms; conditions: P. aeruginosa biofilm
Protocol: as §1

[8] = system: S. aureus biofilms; test: checkerboard titration biofilm synergy (MBIC, FIC); type: cell-based; conditions: for MBIC: compound alone; for Fold decrease in antibiotic concentration: in the presence of peptide 1018; for Fold decrease in antibiotic concentration / antibiotic MIC: in the presence of peptide DJK5
Protocol: as §1

[9] = system: E. coli biofilms; test: checkerboard titration biofilm synergy (MBIC, FIC); type: cell-based; conditions: for MBIC: compound alone; for Fold decrease in antibiotic concentration: in the presence of peptide 1018; for Fold decrease in antibiotic concentration / antibiotic MIC: in the presence of peptide DJK5
Protocol: as §1

[10] = system: methicillin resistant S. aureus (Sa) biofilm; type: cell-based, Staphylococcus aureus; conditions: peptide 5 μg/ml
[11] = system: Pseudomonas aeruginosa (Pa) biofilm; test: static abiotic solid surface (microtiter, crystal violet) / Bioflux biofilm inhibition screen; type: cell-based
Protocol: FIG. 1. Identification of new anti-biofilm peptides active against P. aeruginosa using the microtiter plate screening method with crystal violet staining. […] As a control peptide 1037 was utilized [de la Fuente Nunez et al. 2011].
Methods of assessment of anti-biofilm activity—Biofilm formation was initially analyzed using a static abiotic solid surface assay as described elsewhere (de la Fuente-Nunez et al., 2012). Dilutions (1/100) of overnight cultures were incubated in BM2 biofilm-adjusted medium [62 mM potassium phosphate buffer (pH 7), 7 mM (NH4)2SO4, 2 mM MgSO4, 10 μM FeSO4, 0.4% (wt/vol) glucose, 0.5% (wt/vol) Casamino Acids], or a nutrient medium such as Luria Broth, in polypropylene microtiter plates (Falcon, United States) in the absence (control) or presence of peptide. Peptide was added at time zero (prior to adding the diluted, overnight cultures) in varying concentrations, and the decrease in biofilm formation was recorded at 22-46 h for most bacteria. Planktonic cells were removed, biofilm cells adhering to the side of the tubes were stained with crystal violet, and absorbance at 595 nm was measured using a microtiter plate reader (Bio-Tek Instruments Inc., United States). Some peptides were screened against two Gram negative organisms, P. aeruginosa and K. pneumoniae using a Bioflux apparatus (AutoMate Scientific, Berkeley, Calif.; http://www.autom8.com/bioflux_biofilm.html), which allows for the high-throughput, real-time analysis of biofilms.

[12] = antibiotic in combination with peptide 1018
[13] = antibiotic in combination with peptide DJK5
[14] = in combination with peptide 1018
[15] = in combination with peptide DJK5

Structure (SMILES) | FIC [4, 12] | FIC [4, 13] | Fold decrease in antibiotic MIC in the presence of peptide [4] | FIC [5, 12] | FIC [5, 13] | Fold decrease in antibiotic MIC in the presence of peptide [5] | FIC [6, 12] | FIC [6, 13] | Fold decrease in antibiotic MIC in the presence of peptide [6] | FIC [7, 12] | FIC [7, 13] | Concentration of antibiotic at the FIC [7, 14] | Concentration of antibiotic at the FIC [7, 15] | FIC [8, 12] | FIC [8, 13] | MBIC [8] | concentration of antibiotic at FIC [8, 14] | concentration of antibiotic at FIC [8, 15] | Fold decrease in antibiotic concentration [8] | % Biofilm Inhibition Sa [10] | other results
CC[C@H](C)[C@H](NC(=O)[C@@H](NC(=O)[C@H](CCCNC(=N)N)NC(=O)[C@H](C)NC(=O)[C@@H](NC(=O)[C@H](CCCNC(=N)N)NC(=O)[C@H](CCCCN)NC(=O)[C@H](Cc1ccccc1)NC(=O)[C@@H](N)CCCNC(=N)N)C(C)C)C(C)C)C(=O)N[C@@H](Cc1c[nH]c2ccccc12)C(N)=O [HE12] (H-RFKRVARVIW-NH2; N-terminus assumed) |  |  |  |  |  |  |  |  |  |  |  |  |  |  |  |  |  |  |  |  | synergy with poly(I:C) in MCP-1 production [1]: showed synergy; suppression of LPS-induced TNFα [2]: strongly suppressed; MCP-1 induction [3]: clearly superior to peptide 1018
C[C@@H](O)[C@H]1C(=O)N2C(C(=O)O)=C(SCCN=CN)C[C@H]12 [Imipenem] | 1 | 1 | 2X | 0.53 | 1 | 64X | 0.53 | 0.75 | 2X | 0.502 and 0.5 | 0.51 and 0.5 | 0.8 µg/mL | 0.8 µg/mL | 0.25 | 0.52 | >102.4 µg/mL | 25.6 µg/mL | 3.2 µg/mL | 4X |  | Fold decrease in antibiotic concentration / antibiotic MIC [8]: 32X; FIC [9, 12]: 0.75; FIC [9, 13]: 1; MBIC [9]: 6.4 µg/mL; concentration of antibiotic at FIC [9, 14]: 1.6 µg/mL; concentration of antibiotic at FIC [9, 15]: 0.1 µg/mL; Fold decrease in antibiotic concentration [9]: 4X; Fold decrease in antibiotic concentration / antibiotic MIC [9]: 64X
CC[C@H](C)[C@H](NC(=O)[C@H](CCCNC(=N)N)NC(=O)[C@H](C)NC(=O)[C@@H](NC(=O)[C@H](CC(C)C)NC(=O)[C@H](CCCNC(=N)N)NC(=O)[C@H](CCCNC(=N)N)NC(=O)[C@@H](NC(=O)[C@@H](NC(=O)[C@H](CCCNC(=N)N)NC(=O)[C@@H](N)CCCCN)[C@@H](C)CC)C(C)C)C(C)C)C(=O)N[C@H](C(N)=O)C(C)C [Peptide 1017] (H-KRIVRRLVARIV-NH2; N-terminus assumed) |  |  |  |  |  |  |  |  |  |  |  |  |  |  |  |  |  |  |  | 21% | % Biofilm Inhibition Pa ([11]; peptide 10 μg/ml): 26%
CC[C@H](C)[C@H](N)C(=O)N[C@@H](CC(C)C)C(=O)N1CCC[C@H]1C(=O)N[C@@H](Cc1c[nH]c2ccccc12)C(=O)N[C@@H](CCCCN)C(=O)N[C@@H](Cc1c[nH]c2ccccc12)C(=O)N1CCC[C@H]1C(=O)N[C@@H](Cc1c[nH]c2ccccc12)C(=O)N[C@@H](Cc1c[nH]c2ccccc12)C(=O)N1CCC[C@H]1C(=O)N[C@@H](Cc1c[nH]c2ccccc12)C(=O)N[C@@H](CCCNC(=N)N)C(=O)N[C@@H](CCCNC(=N)N)C(N)=O [Indolicidin, reference compound] |  |  |  |  |  |  |  |  |  |  |  |  |  |  |  |  |  |  |  | 48% | % Biofilm Inhibition Pa ([11]; Pa) biofilm, 10 μg/ml): 29%
CC[C@H](C)[C@H](N)C(=O)N[C@@H](CC(C)C)C(=O)N[C@@H](CCCCN)C(=O)N[C@@H](CCCCN)C(=O)N[C@@H](Cc1c[nH]c2ccccc12)C(=O)N1CCC[C@H]1C(=O)N[C@@H](Cc1c[nH]c2ccccc12)C(=O)N[C@@H](Cc1c[nH]c2ccccc12)C(=O)N1CCC[C@H]1C(=O)N[C@@H](Cc1c[nH]c2ccccc12)C(=O)N[C@@H](CCCNC(=N)N)C(=O)N[C@@H](CCCNC(=N)N)C(=O)N[C@@H](CCCCN)C(N)=O [Peptide 11CN] (H-ILKKWPWWPWRRK-NH2; N-terminus assumed) |  |  |  |  |  |  |  |  |  |  |  |  |  |  |  |  |  |  |  | 32% | 
NC[C@H]1O[C@H](O[C@H]2[C@H](O)[C@@H](O[C@H]3O[C@H](CO)[C@@H](O)[C@H](N)[C@H]3O)[C@H](N)C[C@@H]2N)[C@H](N)C[C@@H]1O [Tobramycin] | 0.75 | 1.03 | 32X | 0.31 | 0.75 | 4X | 0.38 | 0.56 | 16X | 0.502 and 0.5 | 0.51 and 0.5 | 1.6 µg/mL | 1.6 µg/mL | 0.52 and 0.5 | 1 | >102.4 µg/mL | 1.6 µg/mL | 1.6 µg/mL | 64X |  | Fold decrease in antibiotic concentration / antibiotic MIC [8]: 64X; FIC [9, 12]: 0.375 and 0.38; FIC [9, 13]: 0.5625 and 0.56; MBIC [9]: 6.4 µg/mL; concentration of antibiotic at FIC [9, 14]: 1.6 µg/mL; concentration of antibiotic at FIC [9, 15]: 0.4 µg/mL; Fold decrease in antibiotic concentration [9]: 4X; Fold decrease in antibiotic concentration / antibiotic MIC [9]: 16X

Source: patent US20190315823A1, “SMALL CATIONIC ANTI-BIOFILM AND IDR PEPTIDES” (priority 2013, published 2019)
